Patent publication US7605272B2, “IGF-1R inhibitor” (Kyowa Hakko Kirin Co., Ltd., priority 2005, dated 2009)
Read-outs that look alike come from different tables or passages of the source.

Experiments:
KMS-11 = assay: Cytostatic activity on human multiple myeloma cell line KMS-11 (WST-1); type: cell-based; conditions: for inhibition at 1 µM: Homo sapiens, KMS-11, 72 h, read-out: cytostatic rate (%) KMS-11 (1 μmol/L)
How it was run: (§1)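 Cytostatic rate is 100 minus % growth relative to DMSO-only wells (100%) and blank wells (0%), read by WST-1 absorbance at 450/690 nm after 2 h. Compound at 1 or 10 μmol/L final was applied for 72 h at 37 °C to cells seeded 24 h earlier.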

NCI-H929 = assay: Cytostatic activity on human multiple myeloma cell line NCI-H929 (WST-1); type: cell-based; conditions: for inhibition at 1 µM: Homo sapiens, NCI-H929, 72 h, read-out: cytostatic rate (%) H929 (1 μmol/L)
How it was run: as §1

IGF-1R = target: T1, IGF-1R (Homo sapiens, UniProt P08069); assay: IGF-1R inhibitory activity (kinase reaction, time-resolved fluoroimmunoassay); type: biochemical; conditions: IGF-1R active recombinant enzyme, test compound 10 μmol/L
T1 construct: purchased Upstate Co. 14-465
How it was run: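 Compounds were tested at a single 10 μmol/L concentration. Each was incubated with recombinant IGF-1R (200 μg/L), 10 mmol/L ATP, MgCl2/MnCl2 and Na3VO4 (pH 7.5) on immobilized poly(Glu-Tyr) peptide for 30 min at 24° C. Eu-anti-phosphotyrosine time-resolved fluorescence (340/615 nm) gave relative activity against no-compound and no-enzyme wells, reported as % inhibition.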

[1] = KMS-11 cells, test compound 1 μmol/L, WST-1
[2] = NCI-H929 cells, test compound 1 μmol/L, WST-1

T1 sequence (P08069 959-1367 limits assumed): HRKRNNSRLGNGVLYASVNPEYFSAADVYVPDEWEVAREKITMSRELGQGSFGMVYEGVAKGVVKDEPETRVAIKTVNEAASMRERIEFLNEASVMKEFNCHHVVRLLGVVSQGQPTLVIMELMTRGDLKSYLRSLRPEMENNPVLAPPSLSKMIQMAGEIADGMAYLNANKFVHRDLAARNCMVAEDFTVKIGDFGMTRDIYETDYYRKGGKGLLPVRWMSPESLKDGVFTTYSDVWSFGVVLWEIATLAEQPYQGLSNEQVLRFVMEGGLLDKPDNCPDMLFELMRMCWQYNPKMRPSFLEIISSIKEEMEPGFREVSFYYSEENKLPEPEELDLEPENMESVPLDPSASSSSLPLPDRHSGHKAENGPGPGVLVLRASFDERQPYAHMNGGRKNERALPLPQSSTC

inhibition at 10 µM (IGF-1R) [%]	SMILES	inhibition at 1 µM (KMS-11; 1 μmol/L, 72 hours) [%]	inhibition at 1 µM (NCI-H929; 1 μmol/L, 72 hours) [%]	also measured
–	Cc1ccsc1C(=O)Nc1cc(N(C)CCO)ccc1/C=C/c1n[nH]c2ccccc12 [Compound 280]	–	–	cytostatic rate (%) KMS-11 (1 μmol/L) (KMS-11; 1 μmol/L, 72 hours): 109.0%; cytostatic rate (%) H929 (1 μmol/L) (NCI-H929; 1 μmol/L, 72 hours): 112.2%; inhibitory activity (%) at 10 μmol/L (IGF-1R): 97.6%
97.2	Cc1ccsc1C(=O)Nc1cc(C(=O)N2CCN(CCO)CC2)ccc1/C=C/c1n[nH]c2ccccc12 [Compound 281, (E)-N-{5-[4-(2-hydroxyethyl)piperazin-1-ylcarbonyl]-2-[2-(1H-indazol-3-yl)vinyl]phenyl}-3-methylthiophene-2-carboxamide]	115	128	–
99.2	Cc1ccsc1C(=O)Nc1cc(C(=O)NCCN2CCOCC2)ccc1/C=C/c1n[nH]c2ccccc12 [Compound 282, (E)-N-(2-[2-(1H-indazol-3-yl)vinyl]-5-{N-[2-(morpholin-4-yl)ethyl]carbamoyl}phenyl)-3-methylthiophene-2-carboxamide]	123	130	–
101	CNC1CCN(C(=O)c2ccc(/C=C/c3n[nH]c4ccccc34)c(NC(=O)c3sccc3C)c2)C1 (stereo not drawn) [Compound 283, (E)-N-{2-[2-(1H-indazol-3-yl)vinyl]-5-[3-(methylamino)pyrrolidin-1-ylcarbonyl]phenyl}-3-methylthiophene-2-carboxamide]	116	128	–
–	COCCN(CCN(C)C)c1ccc(/C=C/c2n[nH]c3ccccc23)c(NC(=O)c2sccc2C)c1 [Compound 284, (E)-N-{5-[N-(2-dimethylaminoethyl)-2-(methoxyethyl)amino]-2-[2-(1H-indazol-3-yl)vinyl]phenyl}-3-methylthiophene-2-carboxamide]	–	–	cytostatic rate (%) KMS-11 (1 μmol/L) (KMS-11; 1 μmol/L, 72 hours): 130.8%; cytostatic rate (%) H929 (1 μmol/L) (NCI-H929; 1 μmol/L, 72 hours): 121.2%; inhibitory activity (%) at 10 μmol/L (IGF-1R): 97.5%
93.5	O=C(Nc1cc(C(=O)N2CCN(CCO)CC2)ccc1/C=C/c1n[nH]c2ccccc12)c1cccs1 [Compound 289, (E)-N-{5-[4-(2-hydroxyethyl)piperazin-1-ylcarbonyl]-2-[2-(1H-indazol-3-yl)vinyl]phenyl}thiophene-2-carboxamide]	73.6	102	–
97.2	COc1cc(/C=C/c2n[nH]c3ccccc23)c(NC(=O)c2sccc2C)cc1OCCCN1CCOCC1 [Compound 292, (E)-N-{2-[2-(1H-indazol-3-yl)vinyl]-4-methoxy-5-[3-(morpholin-4-yl)propyloxy]phenyl}-3-methylthiophene-2-carboxamide]	122	113	–
98.9	COc1cc(/C=C/c2n[nH]c3ccccc23)c(NC(=O)c2sccc2C)cc1OCCN1CCOCC1 [Compound 293, (E)-N-{2-[2-(1H-indazol-3-yl)vinyl]-4-methoxy-5-[2-(morpholin-4-yl)ethoxy]phenyl}-3-methylthiophene-2-carboxamide]	119	110	–
98.2	Cc1ccsc1C(=O)Nc1cc(CN2CCC(N(C)C)C2)ccc1/C=C/c1n[nH]c2ccccc12 (stereo not drawn) [Compound 294, (E)-N-{5-[3-(dimethylamino)pyrrolidin-1-ylmethyl]-2-[2-(1H-indazol-3-yl)vinyl]phenyl}-3-methylthiophene-2-carboxamide]	116	118	–
97.2	Cc1ccsc1C(=O)Nc1cc(C(=O)N2CCC(N(C)C)C2)ccc1/C=C/c1n[nH]c2ccccc12 (stereo not drawn) [Compound 295, (E)-N-{5-[3-(dimethylamino)pyrrolidin-1-ylcarbonyl]-2-[2-(1H-indazol-3-yl)vinyl]phenyl}-3-methylthiophene-2-carboxamide]	118	118	–
99.9	Cc1ccsc1C(=O)Nc1cc(CN2CCC(N3CCOCC3)CC2)ccc1/C=C/c1n[nH]c2ccccc12 [Compound 296, (E)-N-{2-[2-(1H-indazol-3-yl)vinyl]-5-[4-(morpholin-4-yl)piperidin-1-ylmethyl]phenyl}-3-methylthiophene-2-carboxamide]	112	117	–
101	Cc1ccsc1C(=O)Nc1cc(C(=O)N(C)C2CCNCC2)ccc1/C=C/c1n[nH]c2ccccc12 [Compound 297, (E)-N-{2-[2-(1H-indazol-3-yl)vinyl]-5-[N-methyl-N-(piperidine-4-yl)carbamoyl]phenyl}-3-methylthiophene-2-carboxamide]	94.5	116	–
94.2	COCCN(C)CCCOc1cc(NC(=O)c2sccc2C)c(/C=C/c2n[nH]c3ccccc23)cc1OC [Compound 298, (E)-N-{2-[2-(1H-indazol-3-yl)vinyl]-4-methoxy-5-{3-[N-(2-methoxyethyl)methylamino]propyloxy}phenyl}-3-methylthiophene-2-carboxamide]	110	117	–
97.2	CCN(CC)CCCOc1cc(NC(=O)c2sccc2C)c(/C=C/c2n[nH]c3ccccc23)cc1OC [Compound 300, (E)-N-{5-[3-(diethylamino)propyloxy]-2-[2-(1H-indazol-3-yl)vinyl]-4-methoxyphenyl}-3-methylthiophene-2-carboxamide]	116	119	–
98.3	CC(=O)NC1CCN(C(=O)c2ccc(/C=C/c3n[nH]c4ccccc34)c(NC(=O)c3sccc3C)c2)CC1 [Compound 301, (E)-N-{5-[4-(acetylamino)piperidin-1-ylcarbonyl]-2-[2-(1H-indazol-3-yl)vinyl]phenyl}-3-methylthiophene-2-carboxamide]	100	119	–
101	Cc1ccsc1C(=O)Nc1cc(CN2CCN(C[C@H](O)CO)CC2)ccc1/C=C/c1n[nH]c2ccccc12 [Compound 302, (E)-(S)—N-{5-[4-(2,3-dihydroxypropyl)piperazin-1-ylmethyl]-2-[2-(1H-indazol-3-yl)vinyl]phenyl}-3-methylthiophene-2-carboxamide]	99.4	115	–
100	CC(=O)N1CCC(NC(=O)c2ccc(/C=C/c3n[nH]c4ccccc34)c(NC(=O)c3sccc3C)c2)CC1 [Compound 303, (E)-N-{5-[N-(1-acetylpiperidin-4-yl)carbamoyl]-2-[2-(1H-indazol-3-yl)vinyl]phenyl}-3-methylthiophene-2-carboxamide]	106	115	–
102	COCCCN1CCN(Cc2ccc(/C=C/c3n[nH]c4ccccc34)c(NC(=O)c3sccc3C)c2)CC1 [Compound 304, (E)-N-{2-[2-(1H-indazol-3-yl)vinyl]-5-[4-(3-methoxypropyl)piperazin-1-ylmethyl]phenyl}-3-methylthiophene-2-carboxamide]	105	115	–
100	CN(CCO)c1ccc(/C=C/c2n[nH]c3ccccc23)c(NC(=O)c2cccn2C)c1 [Compound 305, (E)-N-{5-[N-(2-hydroxyethyl)methylamino]-2-[2-(1H-indazol-3-yl)vinyl]phenyl}-1-methyl-1H-pyrrole-2-carboxamide]	–	–	inhibition at 1 µM (KMS-11; [1]): 110%; inhibition at 1 µM (NCI-H929; [2]): 118%
100	Nc1cccc2c1C(=O)N(c1cc(CN3CCN(CCCO)CC3)ccc1/C=C/c1n[nH]c3ccccc13)C2=O [Compound 306, (E)-4-amino-2-{5-[4-(3-hydroxypropyl)piperazin-1-ylmethyl]-2-[2-(1H-indazol-3-yl)vinyl]phenyl}isoindole-1,3-dione]	–	–	inhibition at 1 µM (KMS-11; [1]): 112%; inhibition at 1 µM (NCI-H929; [2]): 116%
100	Nc1cccc2c1C(=O)N(c1cc(CN3CCN(CCO)CC3)ccc1/C=C/c1n[nH]c3ccccc13)C2=O [Compound 307, (E)-4-amino-2-{5-[4-(2-hydroxyethyl)piperazin-1-ylmethyl]-2-[2-(1H-indazol-3-yl)vinyl]phenyl}isoindole-1,3-dione]	–	–	inhibition at 1 µM (KMS-11; [1]): 110%; inhibition at 1 µM (NCI-H929; [2]): 114%
–	Cn1cccc1C(=O)Nc1cc(N(CCO)CCN2CCOCC2)ccc1/C=C/c1n[nH]c2ccccc12 [Compound 308, (E)-{5-[N-(2-hydroxyethyl)-2-(morpholin-4-yl)ethylamino]-2-[2-(1H-indazol-3-yl)vinyl]phenyl}-1-methyl-1H-pyrrole-2-carboxamide]	–	–	cytostatic rate (%) KMS-11 (1 μmol/L) (KMS-11; [1]): 128.1%; cytostatic rate (%) H929 (1 μmol/L) (NCI-H929; [2]): 118.3%; inhibitory activity (%) at 10 μmol/L (IGF-1R): 99.1%
97.1	COCCCN1CCN(C(=O)c2ccc(/C=C/c3n[nH]c4ccccc34)c(N3C(=O)c4cccc(N)c4C3=O)c2)CC1 [Compound 309, (E)-4-amino-2-{2-[2-(1H-indazol-3-yl)vinyl]-5-[4-(3-methoxypropyl)piperazin-1-ylcarbonyl]phenyl}isoindole-1,3-dione]	–	–	inhibition at 1 µM (KMS-11; [1]): 113%; inhibition at 1 µM (NCI-H929; [2]): 115%
